Target: Phospholipase A2 (Sus scrofa) (UniProt P00592+P04416)
Assay: Binding affinity to Sus scrofa (pig) PLA2 isolated from pancreas by isothermal titration calorimetric analysis
Type: protein assay

Chain of Phospholipase A2 (Sus scrofa) (P00592 whole entry, looked up): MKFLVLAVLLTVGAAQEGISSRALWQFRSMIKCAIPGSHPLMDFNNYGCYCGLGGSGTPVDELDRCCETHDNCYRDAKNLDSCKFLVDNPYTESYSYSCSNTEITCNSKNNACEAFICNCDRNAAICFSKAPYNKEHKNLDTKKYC
Chain of Phospholipase A2 (Sus scrofa) (P04416 whole entry, looked up): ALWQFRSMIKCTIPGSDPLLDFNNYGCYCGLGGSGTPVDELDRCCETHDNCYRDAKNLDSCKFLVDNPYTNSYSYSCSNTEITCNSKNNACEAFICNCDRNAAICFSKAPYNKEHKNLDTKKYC

| K [×10⁴ /M] | SMILES |
| --- | --- |
| 23.3 | CCCCCCCC/C=C\CCCCCCCCCCCC(=O)O |
| 1.15 | CCCCC/C=C\C/C=C\CCCCCCCC(=O)O |

Source: ChEMBL document CHEMBL3045988, “Computational and thermodynamic analyses of the phospholipase A2 inhibition by erucic acid and linoleic acid” (Med Chem Res, 2013)
